Experimental findings from patent publication US11787785B2 (NOVARTIS AG, priority 2021, dated 2023) are described below.

The experiment addresses T1, WIZ protein (HiBit-WIZ fusion protein) (Homo sapiens, UniProt O95785+Q96SW2).
T1 construct: expressed in transfected cells
Put plainly: Quantification of WIZ protein levels in HiBit tag fusion protein assay (WIZ HiBit assay in 293T cells). The format is cell-based. The following applies: for Dmax at 25 µM / remaining activity at 25 µM: HEK-293T, 293T cells; for Dmax at 25 µM: 100 − Amax, read-out: % degradation of WIZ (100 − Amax); for remaining activity at 25 µM: DMSO-normalized, curve-fitted percentage of WIZ-HiBit remaining at 25 uM, read-out: WIZ Amax; for DC50: WIZ HiBit assay in 293T cells, 10-point, 5-fold dose response, highest concentration 25 μM, about 18 hours, read-out: WIZ AC50. A digest of the protocol: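 Luminescence after LgBit complementation quantified remaining HiBit-WIZ in lysates of single-copy stable 293T lines. Cells dosed ~18 h at 37 °C with 10-point, 5-fold dilutions (highest 25 μM); DMSO set to 100%, fitted curve gave % remaining at 25 μM (Amax).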
Background: HiBiT is a short tag that completes a luciferase, so light tracks the accessible tagged protein.

T1 sequence (O95785 whole entry, the tested form may be a part): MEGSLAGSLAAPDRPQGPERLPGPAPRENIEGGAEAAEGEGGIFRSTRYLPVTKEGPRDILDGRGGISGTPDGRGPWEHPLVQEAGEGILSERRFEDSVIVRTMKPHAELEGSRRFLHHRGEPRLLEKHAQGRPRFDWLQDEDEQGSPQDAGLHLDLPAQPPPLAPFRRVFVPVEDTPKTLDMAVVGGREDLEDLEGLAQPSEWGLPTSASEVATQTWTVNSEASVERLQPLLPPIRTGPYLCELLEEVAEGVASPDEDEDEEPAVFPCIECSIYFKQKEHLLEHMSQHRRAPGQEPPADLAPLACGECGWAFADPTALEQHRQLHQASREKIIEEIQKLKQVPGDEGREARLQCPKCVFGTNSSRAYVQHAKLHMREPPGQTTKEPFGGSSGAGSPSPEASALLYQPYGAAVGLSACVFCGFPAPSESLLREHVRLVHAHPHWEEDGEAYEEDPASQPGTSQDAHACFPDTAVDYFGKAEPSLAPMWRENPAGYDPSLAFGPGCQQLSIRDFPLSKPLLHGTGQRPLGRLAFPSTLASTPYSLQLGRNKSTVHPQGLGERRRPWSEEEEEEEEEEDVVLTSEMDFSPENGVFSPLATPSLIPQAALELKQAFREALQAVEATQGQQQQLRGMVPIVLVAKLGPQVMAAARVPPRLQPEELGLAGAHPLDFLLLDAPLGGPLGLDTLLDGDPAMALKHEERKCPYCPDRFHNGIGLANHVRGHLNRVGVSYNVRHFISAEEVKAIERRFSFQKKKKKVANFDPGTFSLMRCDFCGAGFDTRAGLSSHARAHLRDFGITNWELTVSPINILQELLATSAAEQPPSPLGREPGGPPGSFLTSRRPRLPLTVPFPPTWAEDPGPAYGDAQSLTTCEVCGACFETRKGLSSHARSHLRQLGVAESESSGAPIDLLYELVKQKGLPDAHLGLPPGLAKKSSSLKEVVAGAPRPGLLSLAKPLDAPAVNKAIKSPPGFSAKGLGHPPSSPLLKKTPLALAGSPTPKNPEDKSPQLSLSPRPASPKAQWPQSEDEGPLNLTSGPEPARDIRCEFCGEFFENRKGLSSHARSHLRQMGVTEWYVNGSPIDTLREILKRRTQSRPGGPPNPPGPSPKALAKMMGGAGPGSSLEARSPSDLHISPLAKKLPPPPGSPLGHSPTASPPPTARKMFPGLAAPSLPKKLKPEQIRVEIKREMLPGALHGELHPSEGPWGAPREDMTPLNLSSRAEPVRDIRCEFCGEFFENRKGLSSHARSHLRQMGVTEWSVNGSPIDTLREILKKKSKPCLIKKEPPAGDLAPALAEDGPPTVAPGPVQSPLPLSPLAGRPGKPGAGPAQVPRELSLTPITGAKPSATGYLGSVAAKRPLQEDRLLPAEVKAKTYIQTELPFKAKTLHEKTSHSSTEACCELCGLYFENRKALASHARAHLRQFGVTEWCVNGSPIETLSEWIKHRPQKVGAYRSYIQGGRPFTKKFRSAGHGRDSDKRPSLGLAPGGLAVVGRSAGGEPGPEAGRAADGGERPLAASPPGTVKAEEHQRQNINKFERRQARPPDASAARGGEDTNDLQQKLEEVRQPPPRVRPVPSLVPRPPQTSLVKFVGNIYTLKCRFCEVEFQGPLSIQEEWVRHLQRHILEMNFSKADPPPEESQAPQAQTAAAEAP
T1 sequence (Q96SW2 whole entry, the tested form may be a part): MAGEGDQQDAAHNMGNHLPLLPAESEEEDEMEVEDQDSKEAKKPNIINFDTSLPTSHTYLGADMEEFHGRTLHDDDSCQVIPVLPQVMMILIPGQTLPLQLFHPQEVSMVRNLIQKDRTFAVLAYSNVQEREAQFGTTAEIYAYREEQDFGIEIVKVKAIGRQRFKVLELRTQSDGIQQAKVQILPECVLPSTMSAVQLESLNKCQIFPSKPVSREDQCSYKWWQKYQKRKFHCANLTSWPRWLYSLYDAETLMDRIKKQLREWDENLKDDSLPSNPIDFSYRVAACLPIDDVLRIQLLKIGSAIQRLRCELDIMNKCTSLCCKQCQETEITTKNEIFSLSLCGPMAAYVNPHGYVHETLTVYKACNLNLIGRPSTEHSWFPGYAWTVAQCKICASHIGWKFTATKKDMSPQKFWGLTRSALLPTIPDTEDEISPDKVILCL
T1 sequence (Q16531 whole entry partner, the tested form may be a part): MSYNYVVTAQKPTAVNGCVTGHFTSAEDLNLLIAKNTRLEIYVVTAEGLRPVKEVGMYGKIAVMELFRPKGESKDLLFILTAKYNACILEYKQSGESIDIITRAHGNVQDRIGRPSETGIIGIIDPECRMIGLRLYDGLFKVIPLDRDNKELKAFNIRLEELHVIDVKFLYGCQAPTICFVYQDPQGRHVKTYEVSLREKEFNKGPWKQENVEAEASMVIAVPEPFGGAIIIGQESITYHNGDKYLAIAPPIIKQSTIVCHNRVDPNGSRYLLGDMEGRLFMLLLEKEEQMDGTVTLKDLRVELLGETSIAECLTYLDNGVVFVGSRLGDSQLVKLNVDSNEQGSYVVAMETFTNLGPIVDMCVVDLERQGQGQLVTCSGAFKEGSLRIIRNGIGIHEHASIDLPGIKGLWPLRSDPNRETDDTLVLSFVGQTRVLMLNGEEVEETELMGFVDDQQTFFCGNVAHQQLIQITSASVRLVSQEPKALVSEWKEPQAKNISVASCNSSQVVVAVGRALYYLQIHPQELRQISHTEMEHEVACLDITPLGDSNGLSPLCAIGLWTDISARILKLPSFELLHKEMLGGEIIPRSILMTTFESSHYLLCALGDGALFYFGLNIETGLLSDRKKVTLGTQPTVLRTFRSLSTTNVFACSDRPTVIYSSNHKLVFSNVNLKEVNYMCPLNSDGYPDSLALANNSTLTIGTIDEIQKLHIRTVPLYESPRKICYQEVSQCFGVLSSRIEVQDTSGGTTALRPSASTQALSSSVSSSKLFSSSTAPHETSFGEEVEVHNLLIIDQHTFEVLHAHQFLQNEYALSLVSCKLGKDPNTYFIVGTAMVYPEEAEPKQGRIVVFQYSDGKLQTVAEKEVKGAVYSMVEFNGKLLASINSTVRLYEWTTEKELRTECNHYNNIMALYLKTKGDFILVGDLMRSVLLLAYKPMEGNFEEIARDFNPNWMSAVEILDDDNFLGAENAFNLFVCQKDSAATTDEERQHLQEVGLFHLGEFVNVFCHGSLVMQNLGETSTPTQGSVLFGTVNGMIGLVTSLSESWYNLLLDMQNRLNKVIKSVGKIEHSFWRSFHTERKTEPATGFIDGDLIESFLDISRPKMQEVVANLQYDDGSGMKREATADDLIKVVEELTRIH

Consider `CC(C)CN1CCN(Cc2ccn3ncc(N4CCC(=O)NC4=O)c3c2)C(=O)C1` [Example 254, 1-(5-((4-isobutyl-2-oxopiperazin-1-yl)methyl)pyrazolo[1,5-a]pyridin-3-yl)dihydropyrimidine-2,4(1H,3H)-dione], for which the Dmax at 25 µM was 0%, the remaining activity at 25 µM is 100% and the DC50 is greater than 25000 nM.
As to `O=C1CCN(c2cnn3ccc(CN4CCN(CC5CCCCC5)CC4=O)cc23)C(=O)N1` [Example 255, 1-(5-((4-(cyclohexylmethyl)-2-oxopiperazin-1-yl)methyl)pyrazolo[1,5-a]pyridin-3-yl)dihydropyrimidine-2,4(1H,3H)-dione], the Dmax at 25 µM was determined as 0%, the remaining activity at 25 µM amounted to 100% and the DC50 was greater than 25000 nM.
Take `C[C@@H]1CN(Cc2ccn3ncc(N4CCC(=O)NC4=O)c3c2)C[C@H](C)N1CC1CCOCC1` [Example 256, 1-(5-(((3S,5R)-3,5-dimethyl-4-((tetrahydro-2H-pyran-4-yl)methyl)piperazin-1-yl)methyl)pyrazolo[1,5-a]pyridin-3-yl)dihydropyrimidine-2,4(1H,3H)-dione]: the Dmax at 25 µM was determined as 78%, the remaining activity at 25 µM worked out at 22% and the DC50 stood at 186 nM.
On to `CC(C)CN1[C@H](C)CN(Cc2ccn3ncc(N4CCC(=O)NC4=O)c3c2)C[C@@H]1C` [Example 257, 1-(5-(((3S,5R)-4-isobutyl-3,5-dimethylpiperazin-1-yl)methyl)pyrazolo[1,5-a]pyridin-3-yl)dihydropyrimidine-2,4(1H,3H)-dione], for which the Dmax at 25 µM was determined as 74%, the remaining activity at 25 µM is 26% and the DC50 turned out to be 101 nM.
On to `C[C@H]1CN(Cc2ccn3ncc(N4CCC(=O)NC4=O)c3c2)C[C@H](C)N1CC1CCCCC1` [Example 258, 1-(5-(((3S,5S)-4-(cyclohexylmethyl)-3,5-dimethylpiperazin-1-yl)methyl)pyrazolo[1,5-a]pyridin-3-yl)dihydropyrimidine-2,4(1H,3H)-dione], for which the Dmax at 25 µM is 69%, the remaining activity at 25 µM was 31% and the DC50 stood at 148 nM.
With `CC(C)CN1[C@@H](C)CN(Cc2ccn3ncc(N4CCC(=O)NC4=O)c3c2)C[C@@H]1C` [Example 259, 1-(5-(((3S,5S)-4-isobutyl-3,5-dimethylpiperazin-1-yl)methyl)pyrazolo[1,5-a]pyridin-3-yl)dihydropyrimidine-2,4(1H,3H)-dione], the Dmax at 25 µM came to 61%, the remaining activity at 25 µM is 39% and the DC50 was 258 nM.
In the case of `O=C1CCN(c2cnn3ccc(CN4CCN5CCC[C@H]5C4)cc23)C(=O)N1` [Example 260, (S)-1-(5-((hexahydropyrrolo[1,2-a]pyrazin-2(1H)-yl)methyl)pyrazolo[1,5-a]pyridin-3-yl)dihydropyrimidine-2,4(1H,3H)-dione], the Dmax at 25 µM amounted to 68%, the remaining activity at 25 µM came out at 32% and the DC50 is 796 nM.
For `O=C1CCN(c2cnn3ccc(CN4CCN5CCC[C@@H]5C4)cc23)C(=O)N1` [Example 261, (R)-1-(5-((hexahydropyrrolo[1,2-a]pyrazin-2(1H)-yl)methyl)pyrazolo[1,5-a]pyridin-3-yl)dihydropyrimidine-2,4(1H,3H)-dione] the same measures were 63%, 37% and 417 nM.
For `O=C1CCN(c2cnn3ccc(CN4CCN5CCCC[C@H]5C4)cc23)C(=O)N1` [Example 262, (S)-1-(5-((octahydro-2H-pyrido[1,2-a]pyrazin-2-yl)methyl)pyrazolo[1,5-a]pyridin-3-yl)dihydropyrimidine-2,4(1H,3H)-dione] the same measures were 68%, 32% and 583 nM.
